Reference: US11103588B2, “Methods and compositions relating to carnitine-derived materials” (Wayne State University, priority 2017, dated 2021)
Where a name gives a salt, the structure may show the parent alone. Read-outs that look alike come from different tables or passages of the source.

Conditions: for Solubility in ACN / Solubility in CHCl3 / Solubility in EA: 80 mg/ml
Description: It is critical to select the right solvent for the one-step reaction to obtain L-carnitineMA monomer. Acryloyl chloride has to be dissolved in a non-protic solvent to preserve its reactivity.

Row | Compound | Solubility in ACN (40° C.) | Solubility in ACN (80° C.) | Solubility in CHCl3 (CHCl3, 40° C.) | Solubility in CHCl3 (CHCl3, 80° C.) | Solubility in EA (40° C.) | Solubility in EA (80° C.) | Solubility in DMF (in words) (80° C.)
1 | C[N+](C)(C)C[C@H](O)CC(=O)[O-].Cl [L-carnitine hydrochloride] | No (No: not soluble) | No (No: not soluble) | No (No: not soluble) | No (No: not soluble) | No (No: not soluble) | No (No: not soluble) | partially dissolved
2 | C[N+](C)(C)C[C@H](O)CC(=O)[O-] [L-carnitine inner-salt] | No (No: not soluble) | No (No: not soluble) | No (No: not soluble) | No (No: not soluble) | No (No: not soluble) | No (No: not soluble) | totally insoluble
